According to PMC6262012, “IMB-T130 targets 3-dehydroquinate synthase and inhibits Mycobacterium tuberculosis” (Scientific Reports, 2018):
In brackets after ≈: the same amount, converted by molar mass. Like-named read-outs stand apart in the source and are kept apart here.

What was measured:
DHQS [1] = molecular target: T1, DHQS (Mycobacterium tuberculosis, UniProt P9WPX9); experiment: HPLC-Q-TOF mass spectrometry of intact DHQS after incubation with IMB-T130; conditions: suggests non-covalent binding
T1 sequence (P9WPX9 whole entry): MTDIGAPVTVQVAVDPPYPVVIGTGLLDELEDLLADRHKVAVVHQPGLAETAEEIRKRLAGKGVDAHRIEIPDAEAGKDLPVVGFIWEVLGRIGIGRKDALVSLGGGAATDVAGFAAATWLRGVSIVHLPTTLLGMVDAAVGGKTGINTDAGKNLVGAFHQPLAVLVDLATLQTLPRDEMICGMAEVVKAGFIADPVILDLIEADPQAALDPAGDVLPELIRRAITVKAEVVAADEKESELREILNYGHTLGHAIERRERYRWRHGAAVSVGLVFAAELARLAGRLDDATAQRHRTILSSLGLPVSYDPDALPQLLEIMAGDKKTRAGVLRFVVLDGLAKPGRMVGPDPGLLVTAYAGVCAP
Procedure: In this study, HPLC-Q-TOF mass spectrometry was also performed to determine the molecular mass of the protein.

[2] = tested on: M. smegmatis strain overexpressing MtL12; experiment: MIC by plate dilution, M. smegmatis overexpressing MtL12; format: cell-based, Mycobacterium smegmatis; conditions: Mycolicibacterium smegmatis
Text: (§1) To overexpress the MtDHQS protein in M. smegmatis, we used the plasmid pMV261-eGFP. The DHQS gene was inserted between the promoter and eGFP gene using BamHI and HindIII restriction enzyme sites so that DHQS was in frame with eGFP. The resulting pMV261:DHQS-eGFP plasmid was transformed into competent M. smegmatis cells. Recombinant protein expression was confirmed by fluorescence microscopy and western blotting with an anti-eGFP antibody. The MICs of IMB-T130 against M. smegmatis with a control vector (pMV261-eGFP plasmid), strains overexpressing a non-related gene (MtL12), and strains overexpressing DHQS-eGFP were determined by the conventional plate dilution method.

[3] = Pharmacokinetic studies in rats; format: in vivo; conditions: male, Sprague Dawley, rat; for half-life: plasma
Procedure: Pharmacokinetic parameters were determined after administration of single oral and intravenous (iv) doses of IMB-T130 at 20 and 5 mg/kg, respectively, in male Sprague Dawley rats.
Animal care and all experimental procedures were performed in accordance with local, national, and ethical principles and authority regulations, and were approved by the Institutional Animal Care and Use Committee of the Institute of Medicinal Biotechnology Institute. Sprague Dawley rats (226.5–261.2 g) were used in the pharmacokinetic studies. The formulation of IMB-T130 (4 mg/mL) was prepared in 5 mL water with 0.5% sodium carboxyl methyl cellulose for oral administration. For iv administration, 7.5 mg IMB-T130 was dissolved in 0.075 mL N-methyl pyrrolidone, and 0.6 mL of PEG400 and 0.825 mL of 20% hydroxypropyl-β-cyclodextrin (aq) were added. After vortexing for 5 min, the 5 mg/mL IMB-T130 formulation was prepared. Rats were dosed at 1 mL/kg by iv injection and at 5 mL/kg by oral gavage at 0 h. A 0.2 mL blood sample was drawn from the jugular vein at 5, 15, and 30 min, and 1, 2, 4, 6, 8, and 24 h. The blood samples were centrifuged (8000 rpm, 6 min) at 4 °C for plasma separation. The IMB-T130 plasma concentration was determined by liquid chromatography-mass spectrometry using an ACQUITY UPLC BEH C18 column (Waters; 1.7 µm, 2.1 × 50 mm)[30].

[4] = Oral tolerability in ICR mice; format: in vivo
Procedure: We speculated that the compound might have anti-TB activity in vivo. IMB-T130 was well tolerated in ICR mice at up to 500 mg/kg administered orally.

[5] = tested on: M. smegmatis strain overexpressing MtDHQS; experiment: MIC by plate dilution, M. smegmatis overexpressing MtDHQS; format: cell-based, Mycobacterium smegmatis; conditions: for MIC: Overexpressing MtDHQS
Text: as §1

[6] = tested on: M. smegmatis strain with control vector (PMV261 plasmid); experiment: MIC by plate dilution, M. smegmatis with control vector; format: cell-based, Mycobacterium smegmatis
Text: as §1

DHQS [7] = molecular target: T1, DHQS; experiment: Circular dichroism spectrum of DHQS and its complex with IMB-T130; format: binding
Text: CD is widely used to examine protein structures in solution. In the far UV spectral region (180–240 nm), the CD spectrum reflects the absorption of peptide bonds, and provides some information about the secondary structural features of a protein[18]. We determined the CD spectrum of the native DHQS and the complex of DHQS and IMB-T130.

[8] = molecular target: Mycobacterium tuberculosis 3-dehydroquinate synthase (MtDHQS) (Mycobacterium tuberculosis, UniProt P9WPX9); experiment: DHQS enzyme assay (malachite green, free phosphoric acid); format: biochemical
Mycobacterium tuberculosis 3-dehydroquinate synthase (MtDHQS), sequence (P9WPX9 whole entry): as above
Procedure: DHQS catalyse the conversion of DAHP to DHQ, and release a molecule of free phosphoric acid. The reaction was performed in a 50-µL volume with DHQS (1 μg/mL), NAD^+ (40 μg/mL), DAHP (10 μg/mL), and Tris-HCl (50 mM, pH 7.5). The solution was added to a 96-well plate and incubated for 40 min at 37 °C. Then, 100 µL of malachite green solution was added and the absorbance of the solution was measured at 620 nm[27].
We screened compounds with anti M. smegmatis activity for DHQS inhibitors. DHQS protein was pre-incubated with 0.5 μL of the test compound (10 μg/mL, dissolved in DMSO) at room temperature for 30 min in 49.5 μL of buffer (without DAHP); for the control group, 0.5 μL of DMSO was added. The reaction was initiated by adding 0.5 μL of DAHP solution followed by incubation (40 min, 37 °C). The absorbance was measured by a microplate reader. […] DHQS (1 μg/mL) was pre-incubated with increasing IMB-T130 concentrations (0.16–40 μg/mL) for 30 min at room temperature, with 1% DMSO used as a control.

M. tuberculosis = conditions: cited from earlier work
DHQS [9] = molecular target: T1, DHQS; experiment: SPR interaction between DHQS and IMB-T130 (NTA sensor chip); format: binding; conditions: 1.875–30 μM IMB-T130
Procedure: Surface plasmon resonance (SPR) could detect interactions between compounds and proteins. DHQS protein is unstable under acidic conditions, so the combination of IMB-T130 and DHQS was detected using nitrilotriacetic acid (NTA) sensor chip. The chips were coated with […] to capture the His-tagged protein and then exposed to a concentration gradient (1.875–30 μM) of IMB-T130. The response units were determined by SPR[16],[17].
An SPR experiment was performed to examine the interaction between DHQS and IMB-T130. Because the protein was unstable under acidic conditions, CM5 sensor chips were not suitable. […] The sensor chips were first coated with Ni^2+ before capturing the purified DHQS. Next, the chip was exposed to different concentrations of IMB-T130, and the response units for five different concentrations (1.875–30 μM) of IMB-T130 were measured by SPR (BIAcore X100 instrument, GE Healthcare).

[10] = tested on: M. tuberculosis H37Rv (ATCC27294) in J774A.1 mouse monocyte macrophages; experiment: Intracellular anti-TB activity in macrophages; format: cell-based, Mycobacterium tuberculosis; conditions: for Log10CFU: 3 days, control 5.13 ± 0.03; for reduction in M. tuberculosis colony forming units (CFU): 3 days exposure
[11] = Mycolicibacterium smegmatis, read-out: MIC

Q: Which results are given for `O=C(Nc1nc(-c2ccccn2)cs1)c1ccc(Cl)s1` [IMB-T130, 5-chloro-N-[4-(pyridin-2-yl)-1,3-thiazol-2-yl] thiophene-2-carboxamide]?
A: intact mass of DHQS after incubation with compound (DHQS [1]): did not increase; MIC [2]: 0.312 µg/mL (≈ 0.97 µM); half-life ([3]; iv 5 mg/kg): 2.13 h; half-life ([3]; po 20 mg/kg): 2.17 h; bioavailability ([3]; in vivo): 12.8%; AUC(0-t) ([3]; in vivo, iv, 5 mg/kg): 1.07 ng·h/mL; Vd ([3]; in vivo, iv, 5 mg/kg): 14.9 L/kg; clearance ([3]; in vivo, iv, 5 mg/kg): 83.2 mL/min/kg; AUC(0-t) ([3]; in vivo, po, 20 mg/kg): 0.55 ng·h/mL; Cmax ([3]; in vivo, po, 20 mg/kg): 116 ng/mL; Tmax ([3]; in vivo, po, 20 mg/kg): 1.5 h; time exposure was higher than the MIC (80 ng/mL) ([3]; in vivo, po, 20 mg/kg): about 4 hours; well tolerated oral dose ([4]; administered orally): up to 500 mg/kg; adverse effects ([4]; oral, over 72 hours): No adverse effects were observed; MIC of DHQS-overexpression strain relative to control strain ([5]; DHQS-overexpression vs PMV261 control strain): eight-fold higher; MIC [5, 11]: 2.5 µg/mL (≈ 7.77 µM); MIC [5]: 2.5 µg/mL (≈ 7.77 µM); MIC [6]: 0.312 µg/mL (≈ 0.97 µM); MIC [6, 11]: 0.312 µg/mL (≈ 0.97 µM); β-turn composition of DHQS in the complex (DHQS [7]; native protein 11.2%): 12.4%; random coil composition of DHQS in the complex (DHQS [7]; native protein 13.4%): 16.8%; α-helix composition of DHQS in the complex (DHQS [7]; native protein 71.6%): 63.3%; IC50 ([8]; IC50, DHQS 1 μg/mL, pre-incubated 30 min at room temperature): 2700 nM; remaining activity at 10 µg/mL ([8]; read-out: OD630 as % of the control (1% DMSO)): < 50%; minimum inhibitory concentration MIC (M. tuberculosis; strain not printed at the place): 0.08 µg/mL (≈ 0.249 µM); anti-TB activity for susceptible strains (M. tuberculosis; susceptible strains): comparable anti-TB activity to rifampicin (RFP) and isoniazid (INH); SPR response units (DHQS [9]): significant dose-dependent response; Log10CFU ([10]; 1 μg/mL): 4.85 ± 0.06; reduction in M. tuberculosis colony forming units (CFU) ([10]; 5 μg/mL): 1.07 log10; Log10CFU ([10]; 5 μg/mL): 4.06 ± 0.03; reduction in M. tuberculosis colony forming units (CFU) ([10]; 10 μg/mL): 1.36 log10; Log10CFU ([10]; 10 μg/mL): 3.77 ± 0.10

Q: For `CO[C@H]1/C=C/O[C@@]2(C)Oc3c(C)c(O)c4c(O)c(c(/C=N/N5CCN(C)CC5)c(O)c4c3C2=O)NC(=O)/C(C)=C\C=C\[C@H](C)[C@H](O)[C@@H](C)[C@@H](O)[C@@H](C)[C@H](OC(C)=O)[C@@H]1C` [RFP, rifampicin, reference compound], which Log10CFU ([10]; 0.5 μg/mL) is on record?
A: 4.25 ± 0.07

Q: What about the Log10CFU ([10]; 2 μg/mL) of the same molecule?
A: 3.74 ± 0.05

Q: And the “reduction in M. tuberculosis colony forming units (CFU)” value ([10]; 5 μg/mL)?
A: 1.84 log10

Q: And the Log10CFU ([10]; 5 μg/mL)?
A: 3.29 ± 0.12

Q: For `[H]/N=C(/N)N[C@H]1[C@H](O)[C@@H](O)[C@H](O[C@@H]2O[C@@H](C)[C@](O)(C=O)[C@H]2O[C@@H]2O[C@@H](CO)[C@H](O)[C@@H](O)[C@@H]2NC)[C@@H](N/C(N)=N\[H])[C@@H]1O` [Streptomycin, reference compound], which MIC [2] is on record?
A: 0.156 µg/mL (≈ 0.268 µM)

Q: What about the MIC [5, 11] of the same molecule?
A: 0.156 µg/mL (≈ 0.268 µM)

Q: And the MIC [6, 11]?
A: 0.156 µg/mL (≈ 0.268 µM)
